Source: paper PMC9959349, “Discovery of the 3-Amino-1,2,4-triazine-Based Library as Selective PDK1 Inhibitors with Therapeutic Potential in Highly Aggressive Pancreatic Ductal Adenocarcinoma” (International Journal of Molecular Sciences, 2023)

Experiments:
PSN-1 cells [1] = experiment: Cellular oxygen consumption (Mito-ID Extracellular O2 Sensor Kit); type: cell-based, human; conditions: IC50 concentrations
Method: Cells were treated with DAP or representative compounds at IC50 concentrations and the changes in OCR and in the intracellular lactate formation were monitored.
PSN-1 cells (2 × 10^5) were seeded in a six-well plate in growth medium (4 mL). After 24 h, cells were incubated for 60 min with IC50 concentrations of tested compounds. Subsequently, oxygen consumption was assessed by Mito-ID® Extracellular O2 Sensor Kit according to manufacturer’s instructions. Fluorescence was measured using a Tecan microplate reader (Ex 340–400 nm, Em 630–680 nm).

PSN-1 cells [2] = experiment: Mitochondrial membrane potential (Mito-ID kit); type: cell-based, human; conditions: IC50 concentrations
Method: The ΔΨ was assayed using the Mito-ID® Membrane Potential Kit according to the manufacturer’s instructions (Enzo Life Sciences, Farmingdale, NY, USA) as previously described. Briefly, PSN-1 cells (8 × 10^3 per well) were seeded in 96-well plates; after 24 h, cells were washed with PBS and loaded with Mito-ID Detection Reagent for 30 min at 37 °C in the dark. Afterward, cells were incubated with tested compounds for 60 min. CCCP (Carbonyl cyanide 3-chlorophenyl-hydrazone) was used as the positive control. Fluorescence intensity was estimated using a VICTOR X3 (PerkinElmer, Waltham, MA, USA) plate reader at 490 (excitation) and 590 nm (emission).

[3] = Body weight changes of LLC-bearing mice; type: in vivo; conditions: LLC-bearing C57BL mice, 5i 20 mg kg−1 daily i.p.
[4] = system: S232 PDH E1 alpha protein (PDHA1) phosphorylation in LLC tissue; experiment: PDH phosphorylation in mice tumor tissues (ELISA); type: in vivo, C57BL mice; conditions: LLC-bearing mice, 5i 20 mg kg−1 daily i.p., tumors collected day 15
Method: As a proof-of-concept of PDK inhibitory activity of the newly developed 3-amino 1,2,4-triazines, we also assessed the phosphorylation level of S232-PDHA1 in tumor samples of animals treated with 5i. Tumors of treated animals collected on day 15 were homogenized and phopho-S232-PDHA1 levels were quantified by an ELISA Kit.
The phosphorylation level of S232 PDH E1 alpha protein (PDHA1) in LLC tissue homogenates was assessed by ELISA Kit (Abcam) following the manufacturer’s instructions. The amount of phosphorylated S232 PDHA1 protein was detected by measuring the absorbance of each well at 600 nm, using a Bio-Rad 680 microplate reader.

recombinant human HSP90 = recombinant human HSP90 (Homo sapiens, UniProt P07900); experiment: HSP90 inhibition assay (Transcreener ADP kit); type: biochemical; conditions: 1.5 µM compound (equivalent doses)
Method: The in vitro inhibitory activity of tested compounds on recombinant human HSP90 was assessed by The Transcreener™ ADP kit (Bellbrook Labs) according to the manufacturer’s protocol. Human recombinant HSP90 protein was incubated with tested compounds in the presence of 250 μM ATP at 37 °C for 30 min, 4°C for 30 min and ATPase activity was stopped via the addition of the stop and detect buffer. Following this, samples were incubated for 1 h at room temperature with the ADP2 Antibody and the ADP Alexa594 Tracer. The fluorescence intensity polarization of samples was measured with a Tecan plate reader (Tecan Infinite® M200). The evaluation was based on means from at least three independent experiments.

[5] = system: murine Lewis Lung Carcinoma (LLC); experiment: In vivo anticancer activity, LLC solid tumor model; conditions: LLC-bearing C57BL mice, daily dosing days 7-14, evaluated day 15; 5i 20 mg kg−1 i.p., gemcitabine 60 mg kg−1, cisplatin 3 mg kg−1
Excerpt: Seven days after tumor inoculation the tumor-bearing mice were randomized into vehicle control and treatment groups.
The LLC was implanted intramuscularly (i.m.) as a 2 × 10^6 cell inoculum into the right hind leg of 8-week-old male and female C57BL mice (24 ± 3 g body weight). After 7 days from tumor implantation (visible tumors), mice were randomly divided into 4 groups (8 animals per group) and subjected to daily i.p. administration. […] At day 15, animals were sacrificed, the legs were amputated at the proximal end of the femur, and the inhibition of tumor growth was determined from the difference in the weights of the tumor-bearing leg and the healthy leg of the animals, expressed as a percentage referenced to the control animals. Body weight was measured at day 0 and from day 7 onwards every 2 days and was taken as a parameter for systemic toxicity. All presented values are the means ± SD of no less than three measurements.

[6] = system: caspase-3 and -8 in PSN-1 cells; experiment: Caspase-3 and -8 activity; type: cell-based, human; conditions: 24 h, IC50 doses
Method: Apoptotic cell death can be triggered by a mitochondria-mediated or mitochondrial-independent pathways. In the […], caspase-8 and caspase-3 play an essential role. […] Staurosporine (STS), an alkaloid inducing apoptosis through caspase-3 and -8 activation was used as a positive control. […] Caspase-3 and -8 cleavage reached values similar to that induced by the well-known caspase-dependent apoptosis inducer staurosporine (Figure 10C).
Protein aliquots (100 μg) were stained at 37 °C for 60 min with fluorescent caspase-3 (N-acetyl-Asp-Glu-Val-Asp-AMC, AMC = 7-amino-4-methylcoumarin) or caspase-8 (Ac-Val-Glu-Thr-Asp-AMC) substrates. Substrate hydrolysis was measured after 60 min by monitoring the release of AMC using a a Tecan microplate reader (excitation at 370 nm, emission at 460 nm).

PSN-1 cells [7] = experiment: ROS production (CM-H2DCFDA); type: cell-based, human; conditions: 5 µM test compounds, antimycin 3 µM as positive control
Method: Consistently, tested compounds, although to different extents, were effective in reducing total cellular sulfhydryl contents in PSN-1-treated cells (Figure 9B).
The production of ROS was measured in PSN-1 cells (10^4 per well) grown for 24 h in a 96-well plate in RPMI medium without phenol red (Sigma Aldrich, Germany). Cells were then washed with PBS and loaded with 10 μM 5-(and-6)-chloromethyl-2′,7′-dichlorodihydrofluorescein diacetate acetylester (CM–H2DCFDA) (Molecular Probes-Invitrogen, Eugene, OR, USA) for 45 min, in the dark. Afterward, cells were washed with PBS and incubated with tested compounds. Fluorescence increase was estimated utilizing the wavelengths of 485 nm (excitation) and 527 nm (emission) in a VICTOR X3 (PerkinElmer, USA) plate reader. Antimycin (3 μM, Sigma Aldrich), a potent inhibitor of Complex III in the electron transport chain, was used as the positive control.

PSN-1 cells [8] = experiment: Cell death induction, Hoechst 33258 staining; type: cell-based, human; conditions: 48 h, IC50 doses
Method: As a last mechanistic evaluation, the ability of selected compounds 5i and 6h to induce cancer cell death by means of apoptosis, was also assessed.
PSN-1 cells were seeded into 8-well tissue-culture slides (BD Falcon, Bedford, MA, USA) at 5 × 10^4 cells/well (0.8 cm^2). […] Samples were examined at 5× and 40× magnification in a Zeiss LSM 800 confocal microscope using the Zeiss ZEN 2.3 software system (Zeiss, Oberkochen, Germany).

[9] = system: S232 PDH E1 alpha protein (PDHA1) phosphorylation in PSN-1 cells; experiment: Cellular PDH phosphorylation (ELISA); type: cell-based, human; conditions: 24 h, IC50 concentrations
Method: As a first step, the ability of representative derivatives to target PDK in intact cancer cells was assessed by evaluating their effect on PDH phosphorylation of PSN-1 cancer cells.
PSN-1 cells (2 × 10^5) were seeded in a six-well plate in growth medium (4 mL). After 24 h, cells were incubated for 24 h with IC50 concentrations of tested compounds. Subsequently, the phosphorylation level of S232 PDH E1 alpha protein (PDHA1) was assessed by ELISA Kit (Abcam) following the manufacturer’s instructions. The amount of phosphorylated S232 PDHA1 protein was detected by measuring the absorbance of each well at 600 nm, using a Bio-Rad 680 microplate reader.

Cn1cc(-c2nnc(N)nc2-c2cn(C)c3ccc(F)cc23)c2ccccc21 [5i]
cellular oxygen consumption (OCR) (PSN-1 cells [1]): more effective than DAP | percentage of cells with hypopolarized mitochondrial membrane potential (in words) (PSN-1 cells [2]): significantly increased | body weight loss (in words) [3]: lower than that induced by cisplatin and gemcitabine | phospho-S232-PDHA1 level in tumor samples [4]: dramatically reduced PDH phosphorylation | decrease of HSP90 catalytic activity (recombinant human HSP90): 60–80% | reduction in tumor growth compared to the control group [5]: about 80% | caspase-3 and -8 activation [6]: significantly activated | ROS basal level production / hydrogen peroxide formation (PSN-1 cells [7]): even higher than that provoked by antimycin | apoptosis induction (nuclear morphology) (PSN-1 cells [8]): brightly stained nuclei and morphological features typical of cells undergoing apoptosis | reduction in phospho-PDHA1 (S232) levels [9]: very similar to that exerted by the reference PDK inhibitor DAP
